US8637484B2, “Modulation of growth hormone receptor expression and insulin-like growth factor expression” (Antisense Therapeutic Limited, priority 2003, dated 2014)
In the oligonucleotide strings, read from the 5' end, every base follows the letter of its sugar. An asterisk marks phosphorothioate; unmarked linkages are phosphodiester. Other units and linkages are bracketed, terminal groups are in braces. A string of capitals states the bases alone. e = 2'-O-(2-methoxyethyl) (MOE); [5mC] = 5-methylcytosine; d = 2'-deoxy (DNA)

Key:
[1] = system: serum insulin-like growth factor-I; assay: Serum IGF-I by radioimmunoassay, 1 week pilot study in Balb/C(a) mice; format: in vivo, mouse; details: for % IGF-I reduction: 30 mg/kg once every 2 days, serum IGF-I at day 7 compared to saline control at day 7
Description: Forty male Balb/C(a) mice weighing 9 to 10 g were placed into cages, 4 animals per cage, and allowed to assimilate into their environment with new littermates ˜1 week prior (Day −7) to the commencement of 1 week study. Mice of this age would be at their maximum growth rate. Their body weights were measured and recorded every second day during this period. When mice weighed 11 g (day −2), a blood sample was collected under anesthesia as described below, and a serum IGF-I assay was performed to determine pre-treatment values and to aid in the assigning of mice to treatment groups in order to reduce animal variability. To obtain the blood sample, the animals were anaesthetized with pentobarbital (50 mg/kg i.p.) and non-fasting blood samples collected exactly 5 minutes later from the retrobulbar plexus through heparinized capillary tubes under light ether anesthesia. The 40 animals were placed into five groups with each group having a similar weight average and similar IGF-I average concentration for the trial.
Animals (n=8/group) were designated to the following five treatment groups:
Saline, antisense, mismatch control and octreotide samples were prepared, and coded for blinding. Animals were given a subcutaneous dose of saline every second day, and mismatch control or antisense with administration on days 0, 2, 4, 6. Animals were given twice daily doses of 25 μg octreotide. Animals were housed 4 per cage, for the duration of one week. They had access to a pre-determined quantity of standard mouse food and water at all times throughout the experiment. They were housed in a quiet, temperature- and humidity-maintained environment for the entirety of the study. At day 0 and before treatment on each day or second day, the animals had their body weight and food intake measured, enabling the correct dose of agent to be administered. The animals were monitored closely for any changes in fur, skin, eye, locomotion or other changes in behavior. No problems were observed. Every second day from day −7 to day 7 body weight and food intake were measured.
On day 7, one day after the last dose of antisense, and/or after the last octreotide dose, the animals were anaesthetized with pentobarbital (50 mg/kg i.p.) and non-fasting blood samples collected exactly 5 minutes later from the retrobulbar plexus through heparinized capillary tubes under light ether anesthesia (as on day −7 and 0).
At day −2 and day 7, serum IGF-I measurement was done by radioimmunoassay. Serum IGF-I level is the most widely used measure of growth hormone biological activity in human therapy. It is used to measure the efficacy of growth hormone antagonist treatments like Trovert, which block cells' responsiveness to excess growth hormone, and dopamine agonists and octreotide somatostatin […] drugs that block growth hormone secretion from the pituitary.

[2] = system: growth hormone receptor mRNA; assay: Growth hormone receptor mRNA levels in liver, additional 1 week study; format: in vivo, mouse; details: one-week study
Description: Male Balb/C(a) mice were prepared and grouped for analysis as in Example 18 above.
Animals were treated and serum IGF-I levels were measured as in Example 18 above. Briefly, for the one-week study, mice were given a subcutaneous dose of saline every second day, and mismatch control or antisense with administration on days 0, 2, 4, 6. On day 7, the animals were anaesthetized with pentobarbital and non-fasting blood samples collected exactly 5 minutes later from the retrobulbar plexus through heparinized capillary tubes under light ether anesthesia. Serum IGF-I measurement was done by radioimmunoassay at day 7.
Growth hormone receptor mRNA levels in liver tissue samples from treated and untreated mice in this one-week study were assayed. The growth hormone receptor antisense inhibitor ISIS 227446 reduced growth hormone receptor mRNA levels in liver after the one-week study by 72% at the 50 mg/kg dose, relative to saline control (p<0.0001). The 30 mg/kg dose of ISIS 227446 yielded a 50% decrease in growth hormone receptor mRNA (p<0.0001). The unrelated control oligonucleotide ISIS 260120, at 50 mg/kg, reduced growth hormone receptor mRNA levels by approximately 15% (p>0.05).

serum IGF-I = assay: Serum IGF-I, two-week mouse study; format: in vivo; details: for % decrease relative to 3 mg/kg ISIS 227446: day 14
Description: A two-week study was done in similar fashion to the one-week study in Example 18, this time using ISIS 227446 at doses of 3, 5, 10, 20 and 30 mg/kg. The mismatch control was given at the same doses. Mice were treated with antisense compound or saline every other day for 14 days.
P-values were determined by t-test.

## acaaagatccatacctgaga (eA*e[5mC]*eA*eA*eA*dG*dA*dT*d[5mC]*d[5mC]*dA*dT*dA*d[5mC]*d[5mC]*eT*eG*eA*eG*eA; antisense) [ISIS 227446]
[1]; 3 mg/kg once every 2 days, day 7
  effect on serum IGF-I: no effect
[1]; 3 mg/kg sc once every 2 days (days 0, 2, 4, 6)
  IGF-I (ng/ml) Day 7: 129.63 ± 33.76 ng/mL
[1]
  % IGF-I reduction: 45%
[1]; listed as ASO
  % IGF-I reduction: 44.51%
[1]; 30 mg/kg sc every second day for one week
  serum IGF-1, % of the control (saline) group: 55%
[1]; 30 mg/kg sc once every 2 days (days 0, 2, 4, 6)
  IGF-I (ng/ml) Day 7: 56.95 ± 10.34 ng/mL
[1]; pre-treatment value of the group given 3 mg/kg sc once every 2 days
  IGF-I (ng/ml) Day −2: 216.23 ± 78.14 ng/mL
[1]; pre-treatment value of the group given 30 mg/kg sc once every 2 days
  IGF-I (ng/ml) Day −2: 181.84 ± 71.32 ng/mL
[2]; 30 mg/kg
  decrease in growth hormone receptor mRNA in liver: 50%
[2]; 50 mg/kg
  reduction of growth hormone receptor mRNA levels in liver relative to saline control: 72%
Serum IGF-I; 3 mg/kg every other day for 14 days
  Day 14 serum IGF-I: 214 ng/mL
Serum IGF-I; 3 mg/kg, 14 days, equivalent to saline control (separate experiment)
  effect on serum IGF-I levels: no effect
Serum IGF-I; 3 mg/kg
  % decrease relative to 3 mg/kg ISIS 227446: 0%
Serum IGF-I; 5 mg/kg every other day for 14 days
  Day 14 serum IGF-I: 194 ng/mL
Serum IGF-I; 5 mg/kg
  % decrease relative to 3 mg/kg ISIS 227446: 9%
Serum IGF-I; 10 mg/kg every other day for 14 days
  Day 14 serum IGF-I: 130 ng/mL
Serum IGF-I; 10 mg/kg
  % decrease relative to 3 mg/kg ISIS 227446: 39%
Serum IGF-I; 20 mg/kg every other day for 14 days
  Day 14 serum IGF-I: 122 ng/mL
Serum IGF-I; 20 mg/kg
  % decrease relative to 3 mg/kg ISIS 227446: 43%
Serum IGF-I; 30 mg/kg every other day for 14 days
  Day 14 serum IGF-I: 126 ng/mL
Serum IGF-I; 30 mg/kg
  % decrease relative to 3 mg/kg ISIS 227446: 41%
Serum IGF-I; >10 mg/kg, 14 days
  decrease in serum IGF-I levels compared to 3 mg/kg: 39-43%
